Results taken from US9833497B2, “Human originated EGF domain proteins and use of the same” (CHENGDU SOURCEBIO LIMITED-LIABILITY COMPANY, priority 2013, dated 2017).

Assays:
Format in all cases: cell-based
[1] = system: Aeromonas hydrophila; assay: MIC against Gram-negative bacteria: Aeromonas hydrophila; conditions: 5×10^5 CFU/mL
In short: (§1)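 Purified recombinant human EGF domain proteins are tested by broth dilution in LB against a 5×10^5 CFU/mL inoculum, with two-fold serial dilutions run in triplicate. Plates are incubated at 37° C with shaking, and the MIC is read as the lowest protein concentration without growth.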

[2] = system: Proteus vulgaris; assay: MIC against Gram-negative bacteria: Proteus vulgaris; conditions: 5×10^5 CFU/mL
In short: as §1

[3] = system: Pseudomonas aeruginosa; assay: MIC against Gram-negative bacteria: Pseudomonas aeruginosa; conditions: 5×10^5 CFU/mL
In short: as §1

[4] = system: Moraxella catarrhalis; assay: MIC against Gram-negative bacteria: Moraxella catarrhalis; conditions: 5×10^5 CFU/mL
In short: as §1

[5] = system: Citrobacter diversus; assay: MIC against Gram-negative bacteria: Citrobacter diversus; conditions: 5×10^5 CFU/mL
In short: as §1

[6] = system: Klebsiella pneumonia; assay: MIC against Gram-negative bacteria: Klebsiella pneumonia; conditions: 5×10^5 CFU/mL
In short: as §1

[7] = system: Enterobacter cloacae; assay: MIC against Gram-negative bacteria: Enterobacter cloacae; conditions: 5×10^5 CFU/mL
In short: as §1

[8] = system: E. coli DH5α; assay: Antibacterial activity: MIC and growth curve against E. coli DH5α in 96-well plate; conditions: minimal inhibitory concentration against E. coli DH5α; 96-well plate, 5×10^5 CFU/mL, 37° C., judged after 8 h
In short: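 Log-phase bacteria (OD600 ~0.5) resuspended in LB at 5×10^5 CFU/mL, exposed to recombinant protein at 50, 25, 12.5 μg/mL final in triplicate, 37 °C shaking at 175 rpm. OD600 read every 30 min; MIC is lowest concentration showing no growth.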

[9] = system: E. coli BL21; assay: MIC against Gram-negative bacteria: E. coli BL21; conditions: 5×10^5 CFU/mL
In short: as §1

[10] = system: Serratia marcescens; assay: MIC against Gram-negative bacteria: Serratia marcescens; conditions: 5×10^5 CFU/mL
In short: as §1

[11] = system: Proteus mirabilis; assay: MIC against Gram-negative bacteria: Proteus mirabilis; conditions: 5×10^5 CFU/mL
In short: as §1

[12] = Aeromonas hydrophila, 96-well plate, 37° C., 10 h
[13] = Proteus vulgaris, 96-well plate, 37° C., 10 h
[14] = Pseudomonas aeruginosa, 96-well plate, 37° C., 10 h
[15] = Moraxella catarrhalis, 96-well plate, 37° C., 10 h
[16] = Citrobacter diversus, 96-well plate, 37° C., 10 h
[17] = Klebsiella pneumonia, 96-well plate, 37° C., 10 h
[18] = Enterobacter cloacae, 96-well plate, 37° C., 10 h
[19] = E. coli BL21, 96-well plate, 37° C., 10 h
[20] = Serratia marcescens, 96-well plate, 37° C., 10 h
[21] = Proteus mirabilis, 96-well plate, 37° C., 10 h
[22] = 10 h cultivation at 37° C., two-fold serial dilution
[23] = E. coli BL21, 10 h cultivation at 37° C.

## PRT1228 (CPPCPKYASCHNSTHCTCEDGFRARSGRTYFHDSSEKCE; listed as Homo sapiens)
[1]; [12]
  MIC against A. hydrophila: 25 µg/mL
[2]; [13]
  MIC against P. vulgaris: 25 µg/mL
[3]; [14]
  MIC against P. aeruginosa: 50 µg/mL
[4]; [15]
  MIC against M. catarrhalis: 25 µg/mL
[5]; [16]
  MIC against C. diversus: 50 µg/mL
[6]; [17]
  MIC against K. pneumonia: 25 µg/mL
[7]; [18]
  MIC against E. cloacae: 12.5 µg/mL
[8]
  MIC: 12.5 µg/mL
[9]; [19]
  MIC against E. coli BL21: 25 µg/mL
[10]; [20]
  MIC against S. marcescens: 50 µg/mL
[11]; [21]
  MIC against P. mirabilis: 12.5 µg/mL

## PRT1301 (DNDDCVAHKCRHGAQCVDTINGYTCTCPQGFSGPFCE; listed as Homo sapiens)
[1]; [12]
  MIC against A. hydrophila: 25 µg/mL
[2]; [13]
  MIC against P. vulgaris: 25 µg/mL
[3]; [14]
  MIC against P. aeruginosa: 12.5 µg/mL
[4]; [15]
  MIC against M. catarrhalis: 50 µg/mL
[5]; [16]
  MIC against C. diversus: 12.5 µg/mL
[6]; [17]
  MIC against K. pneumonia: 12.5 µg/mL
[7]; [18]
  MIC against E. cloacae: 50 µg/mL
[8]
  MIC: 12.5 µg/mL
[9]; [19]
  MIC against E. coli BL21: 12.5 µg/mL
[10]; [20]
  MIC against S. marcescens: 50 µg/mL
[11]; [21]
  MIC against P. mirabilis: 12.5 µg/mL

## PRT524 (CNCSRRGTIEAAMPECDRDSGQCRCKPRITGRQCDRCASGFYRFPECVP; listed as Homo sapiens)
[1]; 96-well plate, 37° C., 10 h
  MIC against A. hydrophila: 25 µg/mL
[2]; 96-well plate, 37° C., 10 h
  MIC against P. vulgaris: 25 µg/mL
[3]; 96-well plate, 37° C., 10 h
  MIC against P. aeruginosa: 12.5 µg/mL
[4]; 96-well plate, 37° C., 10 h
  MIC against M. catarrhalis: 25 µg/mL
[5]; 96-well plate, 37° C., 10 h
  MIC against C. diversus: 100 µg/mL
[6]; 96-well plate, 37° C., 10 h
  MIC against K. pneumonia: 25 µg/mL
[7]; 96-well plate, 37° C., 10 h
  MIC against E. cloacae: 12.5 µg/mL
[8]
  MIC: 12.5 µg/mL
[9]; 96-well plate, 37° C., 10 h
  MIC against E. coli BL21: 12.5 µg/mL
[10]; 96-well plate, 37° C., 10 h
  MIC against S. marcescens: 50 µg/mL
[11]; 96-well plate, 37° C., 10 h
  MIC against P. mirabilis: 12.5 µg/mL

## PRT1158 (IQTSCESFPLRNNATCKKCEKDYPCSCISGFTEKNCE; listed as Homo sapiens)
[1]; [22]
  MIC A. hydrophila: 50 µg/mL
[2]; [22]
  MIC P. vulgaris: 50 µg/mL
[3]; [22]
  MIC P. aeruginosa: 25 µg/mL
[4]; [22]
  MIC M. catarrhalis: 50 µg/mL
[5]; [22]
  MIC C. diversus: 12.5 µg/mL
[6]; [22]
  MIC K. pneumonia: 50 µg/mL
[7]; [22]
  MIC E. cloacae: 12.5 µg/mL
[8]
  MIC: 25 µg/mL
[9]; [22]
  MIC E. coli BL21: 12.5 µg/mL
[10]; [22]
  MIC S. marcescens: 25 µg/mL
[11]; [22]
  MIC P. mirabilis: 12.5 µg/mL

## PRT698 (DVDECARSPPPCTYGRCENTEGSFQCVCPMGFQPNTAGSECE; listed as Homo sapiens)
[1]; 96-well plate, 37° C., 10 h
  MIC A. hydrophila: 12.5 µg/mL
[2]; 96-well plate, 37° C., 10 h
  MIC P. vulgaris: 25 µg/mL
[3]; 96-well plate, 37° C., 10 h
  MIC P. aeruginosa: 12.5 µg/mL
[4]; 96-well plate, 37° C., 10 h
  MIC M. catarrhalis: 50 µg/mL
[5]; 96-well plate, 37° C., 10 h
  MIC C. diversus: 25 µg/mL
[6]; 96-well plate, 37° C., 10 h
  MIC K. pneumonia: 50 µg/mL
[7]; 96-well plate, 37° C., 10 h
  MIC E. cloacae: 25 µg/mL
[8]
  MIC: 50 µg/mL
[9]; 96-well plate, 37° C., 10 h
  MIC E. coli BL21: 25 µg/mL
[10]; 96-well plate, 37° C., 10 h
  MIC S. marcescens: 12.5 µg/mL
[11]; 96-well plate, 37° C., 10 h
  MIC P. mirabilis: 25 µg/mL

## PRT768 (AIDYCSFGNHSCQHECVSTPGGPRCHCREGHDLQPDGRSCQ; listed as Homo sapiens)
[1]; 10 h cultivation at 37° C.
  MIC (μg/mL) A. hydrophila: 12.5 µg/mL
[2]; 10 h cultivation at 37° C.
  MIC (μg/mL) P. vulgaris: 25 µg/mL
[3]; 10 h cultivation at 37° C.
  MIC (μg/mL) P. aeruginosa: 25 µg/mL
[4]; 10 h cultivation at 37° C.
  MIC (μg/mL) M. catarrhalis: 25 µg/mL
[5]; 10 h cultivation at 37° C.
  MIC (μg/mL) C. diversus: 50 µg/mL
[6]; 10 h cultivation at 37° C.
  MIC (μg/mL) K. pneumonia: 12.5 µg/mL
[7]; 10 h cultivation at 37° C.
  MIC (μg/mL) E. cloacae: 50 µg/mL
[8]
  MIC: 12.5 µg/mL
[9]; [23]
  MIC (μg/mL) E. coli BL21: 50 µg/mL
[10]; 10 h cultivation at 37° C.
  MIC (μg/mL) S. marcescens: 12.5 µg/mL
[11]; 10 h cultivation at 37° C.
  MIC (μg/mL) P. mirabilis: 12.5 µg/mL

## PRT824 (YGPGCEQLCGCLNGGSCDAATGACRCPTGFLGTDCN; listed as Homo sapiens)
[1]; 10 h cultivation at 37° C.
  MIC (μg/mL) A. hydrophila: 25 µg/mL
[2]; 10 h cultivation at 37° C.
  MIC (μg/mL) P. vulgaris: 50 µg/mL
[3]; 10 h cultivation at 37° C.
  MIC (μg/mL) P. aeruginosa: 50 µg/mL
[4]; 10 h cultivation at 37° C.
  MIC (μg/mL) M. catarrhalis: 25 µg/mL
[5]; 10 h cultivation at 37° C.
  MIC (μg/mL) C. diversus: 50 µg/mL
[6]; 10 h cultivation at 37° C.
  MIC (μg/mL) K. pneumonia: 25 µg/mL
[7]; 10 h cultivation at 37° C.
  MIC (μg/mL) E. cloacae: 12.5 µg/mL
[8]
  MIC: 12.5 µg/mL
[9]; [23]
  MIC (μg/mL) E. coli BL21: 25 µg/mL
[10]; 10 h cultivation at 37° C.
  MIC (μg/mL) S. marcescens: 25 µg/mL
[11]; 10 h cultivation at 37° C.
  MIC (μg/mL) P. mirabilis: 12.5 µg/mL
